Measurements published in US11498896B2 (The Broad Institute, Inc., priority 2014, dated 2022).

Columns and labels:
human D2R/β-arrestin [1] = molecular target: T1, human D2R/β-arrestin (Homo sapiens (Human), UniProt P14416); assay: β-arrestin agonist assay (PathHunter); type: cell-based; settings: CHO-K1 cells expressing human D2R/β-arrestin; agonist mode
Method: The detection reagent (9.6 μL, Buffer:Emerald II:Galactor-Star in a 19:5:1 ratio, i.e., 14.06 mL:3.7 mL:0.74 mL=18.5 mL) was then added to the agonist plates.

human D2R/β-arrestin [2] = molecular target: T1, human D2R/β-arrestin; assay: Gi/cAMP agonist assay (Lance Ultra cAMP, forskolin); type: cell-based; settings: CHO-K1 cells expressing human D2R/β-arrestin; agonist mode, 2.5 μM forskolin
Method: Eu-cAMP tracer solution (10 μl, PerkinElmer, 360 μl of Tracer in 17.64 ml kit buffer) and ULight-anti-cAMP solution (10 μl, 120 μL antibody in 17.88 ml kit buffer) was then added to each well.

human D2R/β-arrestin [3] = molecular target: T1, human D2R/β-arrestin; assay: cell-based; settings: β-arrestin Antagonist, CHO-K1 cells expressing human D2R/β-arrestin; antagonist mode, quinpirole 130 nM
human D2R/β-arrestin [4] = molecular target: T1, human D2R/β-arrestin; assay: cell-based; settings: cAMP Antagonist, CHO-K1 cells expressing human D2R/β-arrestin; antagonist mode, 2.5 μM forskolin and 2.7 nM quinpirole
Method: Cells were prepared for assays by growing cultures for up to 2 weeks (from about 6-20 passages). A vial of frozen cells was thawed in a water bath held at 37° C. The cells were then transferred into a 50 ml tube with 10 ml growth media. The vial was rinsed with growth media and the contents transferred to the 50 ml tube. The 50 ml tube was centrifuged at 1200 rpm for 5 minutes at room temperature. […] When the cells reached about 90% confluence (approximately 3 days between passages), the cells were passaged and used for either the agonist or antagonist assays as described below.
The cells were prepared for Gi/cAMP assays as described above. The assays were performed using a PE Lance Ultra cAMP kit (TRF0263). The cells were grown on 225 mm dishes, then washed once with 1×PBS (Cellgro) before digestion with 2.5 ml 1× Detachment reagent (DRX 92-0009) for about 2 minutes. PBS (20 ml) was then added to the plate, and the cells were transferred to a 50 ml centrifuge tube, and centrifuged at room temperature using BD Dynac III, at 1200 rpm for 5 minutes. […] The plates were then incubated at room temperature for about 30 minutes before addition of Eu-cAMP tracer solution (10 μl, PerkinElmer) and then ULight-anti-cAMP solution (10 μl) to each well.

T1 sequence (P14416 whole entry): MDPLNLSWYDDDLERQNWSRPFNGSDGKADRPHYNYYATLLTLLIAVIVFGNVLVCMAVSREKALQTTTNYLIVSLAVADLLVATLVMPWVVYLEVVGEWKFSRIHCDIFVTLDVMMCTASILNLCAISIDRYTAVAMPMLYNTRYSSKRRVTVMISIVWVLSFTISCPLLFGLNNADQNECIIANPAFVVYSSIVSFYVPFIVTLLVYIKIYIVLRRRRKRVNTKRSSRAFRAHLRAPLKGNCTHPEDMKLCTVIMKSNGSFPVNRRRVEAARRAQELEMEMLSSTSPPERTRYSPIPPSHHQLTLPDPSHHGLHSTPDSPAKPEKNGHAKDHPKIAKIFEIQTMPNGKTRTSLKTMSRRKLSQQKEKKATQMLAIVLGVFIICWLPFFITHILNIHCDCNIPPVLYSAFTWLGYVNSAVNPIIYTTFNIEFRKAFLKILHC

SMILES	EC50 (human D2R/β-arrestin [1]) [µM]	EC50 (human D2R/β-arrestin [2]) [µM]	IC50 (human D2R/β-arrestin [3]) [µM]	IC50 (human D2R/β-arrestin [4]) [µM]
COc1ccc(OCCN2CCC(C)(Oc3ccc(Cl)cc3)C2)cc1 (stereo not drawn) [Compound 20, 3-(4-chlorophenoxy)-1-(2-(4-methoxyphenoxy)ethyl)-3-methyl pyrrolidine]	> 30	< 0.1	10 to 30	> 30
CC1(Oc2ccc(Cl)cc2)CCN(CCOC2CCCCC2)C1 (stereo not drawn) [Compound 21, 3-(4-chlorophenoxy)-1-(2-(cyclohexyloxy)ethyl)-3-methylpyrrolidine]	> 30	> 30	1 to 10	1 to 10
CC1(Oc2ccc(Cl)cc2)CCN(CCOc2ccc(F)cc2F)C1 (stereo not drawn) [Compound 22, 3-(4-chlorophenoxy)-1-(2-(2,4-difluorophenoxy)ethyl)-3-methyl pyrrolidine]	> 30	< 0.1	1 to 10	0.1 to 1
CC1(Oc2ccc(Cl)cc2)CCN(CCOc2cc(F)ccc2F)C1 (stereo not drawn) [Compound 23, 3-(4-chlorophenoxy)-1-(2-(2,5-difluorophenoxy)ethyl)-3-methyl pyrrolidine]	> 30	< 0.1	0.1 to 1	> 30
CC1(Oc2ccc(Cl)cc2)CCN(CCOc2ccc3cccnc3c2)C1 (stereo not drawn) [Compound 24]	< 0.1	< 0.1	> 30	> 30
CC1(Oc2ccc(Cl)cc2)CCN(CCOc2ccc3ccc(=O)[nH]c3c2)C1 (stereo not drawn) [Compound 25, 7-(2-(3-(4-chlorophenoxy)-3-methylpyrrolidin-1-yl)ethoxy)quinolin-2(1H)-one]	> 30	> 30	1 to 10	1 to 10
CC1(Oc2ccc(Cl)cc2)CCN(CCCc2ccccc2)C1 (stereo not drawn) [Compound 26, 3-(4-chlorophenoxy)-3-methyl-1-(3-phenylpropyl)pyrrolidine]	> 30	> 30	1 to 10	0.1 to 1
CC1(Oc2ccc(Cl)cc2)CCN(CCCCOc2ccccc2Cl)C1 (stereo not drawn) [Compound 28, 3-(4-chlorophenoxy)-1-(4-(2-chlorophenoxy)butyl)-3-methylpyrrolidine]	> 30	> 30	0.1 to 1	< 0.1
CC1(Oc2ccc(Cl)cc2)CCN(CCCCOc2ccc3ncsc3c2)C1 (stereo not drawn) [Compound 29, 6-(4-(3-(4-chlorophenoxy)-3-methylpyrrolidin-1-yl)butoxy)benzo[d]thiazole]	> 30	> 30	1 to 10	1 to 10
CC1(Oc2ccc(Cl)cc2)CCN(CCOc2ccc(C(F)(F)F)nc2)C1 (stereo not drawn) [Compound 30, 5-(2-(3-(4-Chlorophenoxy)-3-methylpyrrolidin-1-yl)ethoxy)-2-(trifluoromethyl)pyridine]	1 to 10	0.1 to 1	> 30	> 30
CC1(Oc2ccc(Cl)cc2)CCN(CCOc2ccc3ccccc3c2)C1 (stereo not drawn) [Compound 31, 3-(4-Chlorophenoxy)-3-methyl-1-(2-(naphthalen-2-yloxy)ethyl) pyrrolidine]	> 30	> 30	1 to 10	0.1 to 1
CC1(Oc2ccc(Cl)cc2)CCN(CCOc2ccc3ncccc3c2)C1 (stereo not drawn) [Compound 32]	> 30	0.1 to 1	1 to 10	> 30
CC1(Oc2ccc(Cl)cc2)CCN(CCOc2ccc3cnccc3c2)C1 (stereo not drawn) [Compound 33, 6-(2-(3-(4-chlorophenoxy)-3-methylpyrrolidin-1-yl)ethoxy)isoquinoline]	> 30	> 30	1 to 10	0.1 to 1
CC1(Oc2ccc(Cl)cc2)CCN(CCOc2ccc3ccncc3c2)C1 (stereo not drawn) [Compound 34, 7-(2-(3-(4-chlorophenoxy)-3-methylpyrrolidin-1-yl)ethoxy)isoquinoline]	1 to 10	0.1 to 1	> 30	> 30
CC1(Oc2ccc(Cl)cc2)CCN(CCOc2ccc(Cl)c(Cl)c2)C1 (stereo not drawn) [Compound 35, 3-(4-chlorophenoxy)-1-(2-(3,4-dichlorophenoxy)ethyl)-3-methyl pyrrolidine]	> 30	< 0.1	1 to 10	> 30
CC1(Oc2ccc(Cl)cc2)CCN(CCOc2cccc3ccccc23)C1 (stereo not drawn) [Compound 36, 3-(4-chlorophenoxy)-3-methyl-1-(2-(naphthalen-1-yloxy)ethyl) pyrrolidine]	> 30	0.1 to 1	1 to 10	0.1 to 1
CC1(Oc2ccc(Cl)cc2)CCN(CCOc2cccc(-c3ccccc3)c2)C1 (stereo not drawn) [Compound 37, 1-(2-([1,1′-biphenyl]-3-yloxy)ethyl)-3-(4-chlorophenoxy)-3-methylpyrrolidine]	> 30	> 30	1 to 10	0.1 to 1

SMILES	EC50 (human D2R/β-arrestin [1]) [µM]	EC50 (human D2R/β-arrestin [2]) [µM]	IC50 (human D2R/β-arrestin [3]) [µM]	IC50 (human D2R/β-arrestin [4]) [µM]
CC1(Oc2ccc(Cl)cc2)CCN(CCOc2ccccc2)CC1 [Compound 38, 4-(4-chlorophenoxy)-4-methyl-1-(2-phenoxyethyl)piperidine]	0.1 to 1	< 0.1	> 30	> 30
CC1(Oc2ccccc2)CCN(CCOc2ccccc2)C1 (stereo not drawn) [Compound 39, 3-methyl-3-phenoxy-1-(2-phenoxyethyl)pyrrolidine]	> 30	< 0.1	0.1 to 1	> 30
FC(F)(F)c1ccccc1OCCN1CCC2(CC1)CCN2c1ccccc1 [Compound 113, 1-phenyl-7-(2-(2-(trifluoromethyl)phenoxy)ethyl)-1,7-diazaspiro[3.5]nonane]	> 30	> 30	0.1 to 1	0.1 to 1
OC1(Cc2ccccc2)CCN(CCOc2ccccc2C(F)(F)F)CC1 [Compound 114, 4-benzyl-1-(2-(2-(trifluoromethyl)phenoxy)ethyl)piperidin-4-ol]	> 30	> 30	< 0.1	< 0.1
FC1(Cc2ccccc2)CCN(CCOc2ccccc2C(F)(F)F)CC1 [Compound 115, 4-benzyl-4-fluoro-1-(2-(2-(trifluoromethyl)phenoxy)ethyl)piperidine]	> 30	> 30	1 to 10	1 to 10
CC1(Oc2ccccc2)CCN(CCC(=O)c2ccccc2C(F)(F)F)CC1 [Compound 116, 3-(4-Methyl-4-phenoxypiperidin-1-yl)-1-(2-(trifluoromethyl)phenyl) propan-1-one]	> 30	> 30	10 to 30	1 to 10
CC1(Oc2ccc(Cl)cc2)CCN(CCC(C)(O)c2ccccc2C(F)(F)F)CC1 (stereo not drawn) [Compound 117, 4-(4-(4-chlorophenoxy)-4-methylpiperidin-1-yl)-2-(2-(trifluoromethyl)phenyl)butan-2-ol]	> 30	> 30	10 to 30	1 to 10
CC1(Oc2ccccc2)CCN(CCCc2ccccc2C(F)(F)F)CC1 [Compound 118, 4-Methyl-4-phenoxy-1-(3-(2-(trifluoromethyl)phenyl)propyl)piperidine]	> 30	< 0.1	0.1 to 1	0.1 to 1
CC1(C)OC(c2ccccc2)C2(CCN(CCOc3ccccc3C(F)(F)F)CC2)O1 (stereo not drawn) [Compound 119]	> 30	> 30	1 to 10	1 to 10
CC1(Oc2ccc(Cl)cc2)CCN(CCCCOc2ccccc2)CC1 [Compound 120, 4-(4-chlorophenoxy)-4-methyl-1-(4-phenoxybutyl)piperidine]	> 30	1 to 10	10 to 30	> 30
CC1(Oc2ccccc2)CCN(CCCCOc2ccccc2)CC1 [Compound 121, 4-Methyl-4-phenoxy-1-(4-phenoxybutyl)piperidine]	0.1 to 1	< 0.1	1 to 10	> 30
CC1(O)CCN(CCOc2ccccc2C(F)(F)F)CC1 [Compound 124, 4-Methyl-1-(2-(2-(trifluoromethyl)phenoxy)ethyl)piperidin-4-ol]	> 30	> 30	0.1 to 1	< 0.1
CC1(OCc2ccccc2)CCN(CCOc2ccccc2C(F)(F)F)CC1 [Compound 126, 4-(Benzyloxy)-4-methyl-1-(2-(2-(trifluoromethyl)phenoxy)ethyl) piperidine]	> 30	> 30	< 0.1	< 0.1
CC1(Oc2ccc(Cl)cc2)CCN(CCOc2ccc3ncoc3c2)CC1 [Compound 127, 6-(2-(4-(4-chlorophenoxy)-4-methylpiperidin-1-yl)ethoxy)benzo[d] oxazole]	0.1 to 1	< 0.1	1 to 10	> 30
CC1(Oc2ccc(Cl)cc2)CCN(CCOc2cnccc2C(F)(F)F)CC1 [Compound 128, 3-(2-(4-(4-chlorophenoxy)-4-methylpiperidin-1-yl)ethoxy)-4-(trifluoromethyl)pyridine]	> 30	1 to 10	1 to 10	0.1 to 1
CC1(Oc2ccc(Cl)cc2)CCN(CC(=O)Nc2ccccc2C(F)(F)F)CC1 [Compound 129, 2-(4-(4-chlorophenoxy)-4-methylpiperidin-1-yl)-N-(2-(trifluoromethyl)phenyl)acetamide]	> 30	> 30	> 30	> 30
